Experimental findings from ChEMBL document CHEMBL3301464, “MMV Malaria Box anti-babesial screening” are described below.

Molecules are shown by their SMILES.

Test [1] is described as follows: (§1) MMV: Anti-babesial activity assay. Parasite pRBCs at 1% parasitemia were cultivated in 100 ul with 96-well plates at 2.5% and 5% hematocrits. The parasites were cultivated in triplicate for 4 days without replacement of the medium for each concentration of the compound. The class given is functional, Babesia equi.
The nature of test [2]: as §1. The class given is functional, Babesia bigemina.
Test [3] is described as follows: as §1. It is filed as functional, Babesia caballi.
The nature of test [4]: as §1. It is filed as functional, Babesia bovis.

Usually IC50 stands for the concentration that gives 50% inhibition. As to `COCCN(C(=O)Cc1cccs1)C(C(=O)NCc1ccc(OC)cc1)c1ccc(C(C)C)cc1` (stereo unspecified), the IC50 in test [1] is 5.79 µM; in test [2], 13.2 µM; in test [3] it was 17.2 µM; in test [4], 25 µM.

Turning to `Cc1ccc(C)c(Cn2c(N3CCC(C(=O)NCc4cccs4)CC3)nc3ccccc32)c1`, the IC50 came out at 10 µM in test [1], 0.1 µM in test [2], 16.5 µM in test [3] and 0.13 µM in test [4].

As to `COc1ccc(-c2cc3c(nn2)-c2ccccc2C3=O)cc1`, the IC50 is 9.18 µM in test [1], 10 µM in test [2], 14.8 µM in test [3] and 0.34 µM in test [4].

On to `COc1cc(-c2nc(-c3ccccc3)c(-c3ccccc3)[nH]2)cc(OC)c1O`, for which the IC50 came out at 12 µM in test [1], 3.34 µM in test [2], 21.7 µM in test [3] and 8.03 µM in test [4].

For the compound `COc1ccc(Nc2cc(C)nc(NCc3ccccc3)n2)cc1`, the IC50 in test [1] worked out at 15.2 µM; in test [2], 0.067 µM; in test [3] it was 14.6 µM; in test [4] it was 0.054 µM.

Consider `COc1ccccc1C(=O)ON=C(N)Cc1cccc2ccccc12`, for which the IC50 in test [1] was determined as 7.65 µM; in test [2], 19.8 µM; in test [3] it was 6.86 µM; in test [4], 22.4 µM.

As for `CCCc1c(C)nc2ccccc2c1O`, the IC50 was determined as 2.4 µM in test [1], 2.96 µM in test [2], 3.7 µM in test [3] and 15.3 µM in test [4].

For the compound `CCC(c1ccccc1)c1nn2c(-c3cccs3)nnc2s1` (stereo unspecified), the 50% inhibitory concentration (IC50) in test [1] stood at 7.87 µM; in test [2] it was 16.4 µM; in test [3] it was 15.8 µM; in test [4], 18.6 µM.

Consider `Cc1cc(NC(=O)C2c3ccccc3C(=O)N(CC(C)C)C2c2cccs2)no1` (stereo unspecified), for which the IC50 in test [1] was determined as 3 µM; in test [2] it was 2.57 µM; in test [3], 13 µM; in test [4], 12.6 µM.

In the case of `Cc1sc2ncnc(Sc3nc4ccccc4[nH]3)c2c1C`, the IC50 was found to be 5.5 µM in test [1], 0.41 µM in test [2], 0.29 µM in test [3] and 0.05 µM in test [4].

Turning to `CCOC(=O)c1cnc2ccc(CC)cc2c1O`, the IC50 in test [1] is 14.9 µM; in test [2] it was 17.5 µM; in test [3] it was 13.5 µM; in test [4], above 25 µM.

As for `N=c1n(CCN2CCCCC2)c2ccccc2n1CC(O)c1cccc(Br)c1` (stereo unspecified), the IC50 came out at 1.58 µM in test [1], 1 µM in test [2], 4.93 µM in test [3] and 3.81 µM in test [4].

Turning to `COc1ccc(/C=C2/SC(=Nc3ccccc3)NC2=O)cc1`, the IC50 stood at 0.1 µM in test [1], 1 µM in test [2], 13.3 µM in test [3] and 4.91 µM in test [4].

On to `CN(C)CCCNCc1ccc(-c2ccc(F)c(Cl)c2)o1`, for which the IC50 in test [1] is 4.09 µM; in test [2], 4.61 µM; in test [3] it was 0.69 µM; in test [4], 2.45 µM.

As to `COc1cccc(NC(=O)Cn2c(C)c(C#N)c3ccccc32)c1`, the IC50 in test [1] stood at 7.3 µM; in test [2], 14.8 µM; in test [3], 10.1 µM; in test [4], 9.04 µM.

On to `CN(C)c1ccc(N=Cc2ccc(N3CCOCC3)cc2)cc1`, for which the IC50 in test [1] was 0.63 µM; in test [2], 0.068 µM; in test [3], 0.043 µM; in test [4] it was 0.068 µM.

Take `Nc1ccc(-c2nc3cc(Cc4ccc5[nH]c(-c6ccc(N)cc6)nc5c4)ccc3[nH]2)cc1`: the IC50 in test [1] stood at 0.8 µM; in test [2], 9.04 µM; in test [3], 1 µM; in test [4], 0.086 µM.

`CCCCOc1ccc(C(=O)Nc2cc(C)on2)cc1`: the IC50 in test [1] came out at 6.99 µM; in test [2] it was 25 µM; in test [3], 0.083 µM; in test [4] it was 21.2 µM.

`Cc1c(C)n(Cc2ccc(F)cc2)c2ccc(C(=O)NCc3ccco3)cc12`: the IC50 in test [1] was 15.8 µM; in test [2], 0.288 µM; in test [3], 10 µM; in test [4], 24.7 µM.

Turning to `CCn1nc(-c2ccc(C(=O)OC)cc2)nc2c(=O)n(C)c(=O)nc1-2`, the IC50 is 5.06 µM in test [1], 7.89 µM in test [2], 0.09 µM in test [3] and 12.8 µM in test [4].

For the compound `COc1ccc(-c2nc3cc(Cc4ccc5[nH]c(-c6ccc(OC)cc6)nc5c4)ccc3[nH]2)cc1`, the IC50 was 8.12 µM in test [1], 7.5 µM in test [2], 3.21 µM in test [3] and 5.58 µM in test [4].

Turning to `c1ccc(Cn2c(N=Nc3c(Nc4ccccc4)ccc4ccccc34)nc3ccccc32)cc1`, the IC50 was 0.76 µM in test [1], 3.3 µM in test [2], 2.84 µM in test [3] and 2.93 µM in test [4].

Turning to `Cc1ccc2nc(C)cc(Nc3cccc(C(F)(F)F)c3)c2c1`, the IC50 in test [1] was 5.5 µM; in test [2], 17.5 µM; in test [3], 6.72 µM; in test [4] it was 6.31 µM.

Regarding `CC(Oc1ccc(NC(=O)c2cccs2)cc1)C(=O)c1ccc(Cl)cc1` (stereo unspecified), the half-inhibitory concentration (IC50) came to 13.3 µM in test [1], 0.081 µM in test [2], 0.29 µM in test [3] and 0.1 µM in test [4].

With `CCOc1cc2c(cc1OCC)C(c1cc(C)c(O)c(C)c1)NCC2` (stereo unspecified), the IC50 worked out at 3.7 µM in test [1], 19.2 µM in test [2], 21.1 µM in test [3] and 1 µM in test [4].

Turning to `CCOC(=O)c1ccc2nc(-c3ccccc3)cc(O)c2c1`, the IC50 in test [1] was above 25 µM; in test [2] it was 14.1 µM; in test [3] it was 14.2 µM; in test [4] it was above 25 µM.

For the compound `CCc1ccc(CNCC(O)c2ccccc2)cc1` (stereo unspecified), the IC50 in test [1] was 15.2 µM; in test [2], 7.65 µM; in test [3] it was 4.13 µM; in test [4], 11.1 µM.

As for `COc1ccc(C(=O)NC(c2ccc(Cl)cc2Cl)c2cc(Cl)c3cccnc3c2O)cc1` (stereo unspecified), the IC50 in test [1] was determined as 1.39 µM; in test [2] it was 3.05 µM; in test [3] it was 4.68 µM; in test [4] it was 0.86 µM.

In the case of `Oc1ccc(Br)cc1CN1CCN(Cc2cccc(F)c2)CC1`, the IC50 is 13 µM in test [1], above 25 µM in test [2], 14.3 µM in test [3] and 17.3 µM in test [4].
